In patent US11667649B2, “Heteroaromatic macrocyclic ether chemotherapeutic agents” (Nuvalent, Inc., priority 2020, dated 2023):

System: TPM3-NTRK1-wt IC50 / primary target (e.g. CD74-ROS1-wt) IC50, Ba/F3 cells
Assay: Cell assay TRKA selectivity (TRKA potency divided by primary target potency)
Format: cell-based
Details: for TPM3-NTRK1-wt/CD74-ROS1-G2032R: TRKA selectivity ratio: TPM3-NTRK1-wt IC50 / CD74-ROS1-G2032R IC50, Ba/F3 cells; for TPM3-NTRK1-wt/CD74-ROS1-wt: TRKA selectivity ratio: TPM3-NTRK1-wt IC50 / CD74-ROS1-wt IC50, Ba/F3 cells; for TPM3-NTRK1-wt/EML4-ALK-L1196M-G1202R: TRKA selectivity ratio: TPM3-NTRK1-wt IC50 / EML4-ALK-L1196M-G1202R IC50, Ba/F3 cells; for TPM3-NTRK1-wt/EML4-ALK-wt: TRKA selectivity ratio: TPM3-NTRK1-wt IC50 / EML4-ALK-wt IC50, Ba/F3 cells
Text: Genes encoding CD74-ROS1 wild-type (wt), CD74-ROS1 G2032R, CD74-ROS1 S1986F, CD74-ROS1 L2026M, CD74-ROS1 D2033N, EML4-ALK wt (variant 1), EML4-ALK G1202R (variant 1), EML4-ALK L1196M/G1202R (variant 1), EML4-ALK G1202R/G1269A (variant 1), EML4-ALK G1202R/L1198F (variant 1), and TPM3-TRKA were synthesized at GeneRay, cloned into the retroviral construct pMSCV-puro (Biovector), and packaged into retroviral particles. The virus was used to infect Ba/F3 cells (RIKEN) at multiplicity of infection=1 for 1 day. Infected cells were rescued in media (RPMI-1640 with 10% fetal bovine serum and 1% streptomycin and penicillin) supplemented with mouse IL-3 (10 ng/mL) for 2 days, and stable cell lines were selected by IL-3 withdrawal and puromycin (0.8 μg/mL) for 7 days. Monoclones were selected by single-cell dilution in IL-3-free medium containing puromycin (0.8 μg/mL). Transformation of desired genes was confirmed by Sanger sequencing and western blot using the following antibodies: ROS1 (CST #3287), ALK (CST #3633), and pan-TRK (Abcam #76291).
Stable cells were plated at 1,000 cells/well (40 μL) in a 384-well plate for 1 day. Test compounds (40 nL) were then added in a 3-fold dilution series using the TECAN EVO200 liquid handler and incubated for 72 hours. Plates were equilibrated at room temperature for 15 minutes followed by addition of 40 μL CellTiter-Glo reagent (Promega). Luminescence was measured on a plate reader. Half-maximal inhibitory concentration (IC50) was calculated from percent inhibition and inhibitor concentration using four-parameter logistic regression. […] Exemplary data is given in Table 4 (nd is not determined).
TRKA selectivity was calculated by dividing a compound's TRKA potency by its primary target potency (e.g. TPM3-NTRK1-wt IC50/CD74-ROS1-wt IC50). Compound selectivity can be interpreted by binning ratio values: bin A for very high selectivity, ratio>30-fold; bin B for high selectivity, ratio>10-fold; bin C for moderate selectivity, ratio≥1; and bin D for low selectivity, ratio<1. […] (nd=not determined).

SMILES	TPM3-NTRK1-wt/CD74-ROS1-G2032R	TPM3-NTRK1-wt/CD74-ROS1-wt	TPM3-NTRK1-wt/EML4-ALK-L1196M-G1202R	TPM3-NTRK1-wt/EML4-ALK-wt
CCn1ncc2c1-c1cnc(N)c(c1)O[C@H](C)c1cc(F)ccc1-c1c(cnn1C)C2 [Example 32, (19R)-3-ethyl-16-fluoro-11,19-dimethyl-20-oxa-3,4,10,11,23-pentaazapentacyclo[19.3.1.0^2,^6.0^8,^12.0^13,^18]pentacosa-1(24),2(6),4,8(12),9,13,15,17,21(25),22-decaen-22-amine]	A (bin A for very high selectivity, ratio>30-fold)	A (bin A for very high selectivity, ratio>30-fold)	C (bin C for moderate selectivity, ratio≥1)	B (bin B for high selectivity, ratio>10-fold)
C[C@H]1Oc2cc(cnc2N)-c2c(C#N)ncn2Cc2ccncc2-c2ccc(F)cc21 [Example 11, (20R)-23-amino-17-fluoro-20-methyl-21-oxa-4,6,11,24-tetraazapentacyclo[20.3.1.0^2,^6.0^8,^13.0^14,^19]hexacosa-1(25),2,4,8(13),9,11,14,16,18,22(26),23-undecaene-3-carbonitrile]	A (bin A for very high selectivity, ratio>30-fold)	A (bin A for very high selectivity, ratio>30-fold)	C (bin C for moderate selectivity, ratio≥1)	A (bin A for very high selectivity, ratio>30-fold)
COc1cc2n(n1)-c1ccc(F)cc1[C@@H](C)Oc1cc(cnc1N)-c1c(nnn1CC1CC1)C2 [Example 144, (19R)-3-(cyclopropylmethyl)-16-fluoro-10-methoxy-19-methyl-20-oxa-3,4,5,11,12,23-hexaazapentacyclo[19.3.1.0^2,^6.0^8,^12.0^13,^18]pentacosa-1(24),2(6),4,8,10,13,15,17,21(25),22-decaen-22-amine]	A (bin A for very high selectivity, ratio>30-fold)	A (bin A for very high selectivity, ratio>30-fold)	B (bin B for high selectivity, ratio>10-fold)	A (bin A for very high selectivity, ratio>30-fold)
C[C@H]1Oc2cc(cnc2N)-c2c(nnn2CC2CC2)Cc2cc(Cl)nn2-c2ccc(F)cc21 [Example 108, (19R)-10-chloro-3-(cyclopropylmethyl)-16-fluoro-19-methyl-20-oxa-3,4,5,11,12,23-hexaazapentacyclo[19.3.1.0^2,^6.0^8,^12.0^13,^18]pentacosa-1(24),2(6),4,8,10,13,15,17,21(25),22-decaen-22-amine]	A (bin A for very high selectivity, ratio>30-fold)	A (bin A for very high selectivity, ratio>30-fold)	B (bin B for high selectivity, ratio>10-fold)	A (bin A for very high selectivity, ratio>30-fold)
C[C@H]1Oc2cc(cnc2N)-c2c(nnn2CC2CC2)Cc2cc(F)cnc2-c2ccc(F)cc21 [Example 106, (20R)-3-(cyclopropylmethyl)-10,17-difluoro-20-methyl-21-oxa-3,4,5,12,24-pentaazapentacyclo[20.3.1.0^2,^6.0^8,^13.0^14,^19]hexacosa-1(25),2(6),4,8(13),9,11,14,16,18,22(26),23-undecaen-23-amine]	A (bin A for very high selectivity, ratio>30-fold)	A (bin A for very high selectivity, ratio>30-fold)	B (bin B for high selectivity, ratio>10-fold)	A (bin A for very high selectivity, ratio>30-fold)
CCn1ncc2c1-c1cnc(N)c(c1)OC(C)c1cc(F)ccc1-c1ccncc1C2 (stereo not shown) [Example 36, 3-ethyl-17-fluoro-20-methyl-21-oxa-3,4,10,24-tetraazapentacyclo[20.3.1.0^2,^6.0^8,^13.0^14,^19]hexacosa-1(25),2(6),4,8(13),9,11,14,16,18,22(26),23-undecaen-23-amine]	A (bin A for very high selectivity, ratio>30-fold)	A (bin A for very high selectivity, ratio>30-fold)	C (bin C for moderate selectivity, ratio≥1)	A (bin A for very high selectivity, ratio>30-fold)
CCc1snc2c1-c1cnc(N)c(c1)O[C@H](C)c1cc(F)ccc1-c1nn(C)cc1C2 [Example 88, (19R)-3-ethyl-16-fluoro-10,19-dimethyl-20-oxa-4-thia-5,10,11,23-tetraazapentacyclo[19.3.1.0^2,^6.0^8,^12.0^13,^18]pentacosa-1(24),2,5,8,11,13,15,17,21(25),22-decaen-22-amine]	B (bin B for high selectivity, ratio>10-fold)	A (bin A for very high selectivity, ratio>30-fold)	C (bin C for moderate selectivity, ratio≥1)	A (bin A for very high selectivity, ratio>30-fold)
CCn1ncc2c1-c1cnc(N)c(n1)OC(C)c1cc(F)ccc1-c1c(cnn1C)C2 (stereo not shown) [Example 164, 3-ethyl-16-fluoro-11,19-dimethyl-20-oxa-3,4,10,11,23,25-hexaazapentacyclo[19.3.1.0^2,^6.0^8,^12.0^13,^18]pentacosa-1(24),2(6),4,8(12),9,13,15,17,21(25),22-decaen-22-amine]	A (bin A for very high selectivity, ratio>30-fold)	–	C (bin C for moderate selectivity, ratio≥1)	B (bin B for high selectivity, ratio>10-fold)
CCn1ncc2c1-c1cnc(N)c(c1)O[C@H](C)c1cc(F)ccc1-c1nn(C(C)(C)C)cc1C2 [Example 150, (19R)-10-tert-butyl-3-ethyl-16-fluoro-19-methyl-20-oxa-3,4,10,11,23-pentaazapentacyclo[19.3.1.0^2,^6.0^8,^12.0^13,^18]pentacosa-1(24),2(6),4,8,11,13,15,17,21(25),22-decaen-22-amine]	A (bin A for very high selectivity, ratio>30-fold)	A (bin A for very high selectivity, ratio>30-fold)	C (bin C for moderate selectivity, ratio≥1)	B (bin B for high selectivity, ratio>10-fold)
CCn1ncc2c1-c1cnc(N)c(c1)O[C@H](C)c1cc(F)ccc1-c1nc(C)cn1C2 [Example 45, (19R)-3-ethyl-16-fluoro-10,19-dimethyl-20-oxa-3,4,8,11,23-pentaazapentacyclo[19.3.1.0^2,^6.0^8,^12.0^13,^18]pentacosa-1(24),2(6),4,9,11,13,15,17,21(25),22-decaen-22-amine]	A (bin A for very high selectivity, ratio>30-fold)	A (bin A for very high selectivity, ratio>30-fold)	B (bin B for high selectivity, ratio>10-fold)	A (bin A for very high selectivity, ratio>30-fold)
Cc1nn(CC(F)F)c2c1Cc1cn(C)nc1-c1ccc(F)cc1[C@@H](C)Oc1cc-2cnc1N [Example 79, (19R)-3-(2,2-difluoroethyl)-16-fluoro-5,10,19-trimethyl-20-oxa-3,4,10,11,23-pentaazapentacyclo[19.3.1.0^2,^6.0^8,^12.0^13,^18]pentacosa-1(24),2(6),4,8,11,13,15,17,21(25),22-decaen-22-amine]	A (bin A for very high selectivity, ratio>30-fold)	A (bin A for very high selectivity, ratio>30-fold)	A (bin A for very high selectivity, ratio>30-fold)	A (bin A for very high selectivity, ratio>30-fold)
